Data from EP3485891A1, “WOUND TREATMENT COMPOSITION CONTAINING ULDAVIOSIDE A COMPOUND” (Elcubio Co., Ltd., priority 2016, dated 2018).

How the values were obtained:
[1] = tested on: Sprague-Dawley white rats; experiment: Full-thickness hack wound healing, visual observation and wound size quantification; assay type: in vivo; conditions: rat hind leg, 3 cm-diameter full-thickness hack, ointment containing 0.025 wt%, topical; days 3, 7, 10, 14; compared with the control (ointment without compound), FIG. 5
Description: In order to investigate a wound healing effect of the uldavioside A compound of the present invention, an animal experiment was conducted.
A hind leg of 7-8 week-old Sprague-Dawley white rats was shaved, and disinfected with 70% alcohol, and then a 3 cm-diameter circular full-thickness hack was made. After the full-thickness hack was made, the rats were randomly assigned and divided into a control treated without the uldavioside A compound of the present invention and a treatment group. For the treatment group, on the day of hack induction, the wound was treated with an ointment (Preparation Example 1-2 below) containing 0.025 wt% of the uldavioside A compound, wrapped with sterilized Korean traditional paper, and fixed with a band and a bandage to maintain a wet environment. For the control, the wound was treated with an ointment not containing the uldavioside A compound. Thereafter, on days 3, 7, 10, and 14 of wound induction, the wound site was observed, and the size of the wound site was quantified.

[2] = tested on: hack-induced animal tissue; experiment: Histological change of hack wound tissue (H&E stain, Masson's trichrome stain); assay type: in vivo, Sprague-Dawley white rats
Description: In order to investigate a hack healing effect of the uldavioside A compound of the present invention, a histological change was observed using the hack-induced animal tissue.
The collected tissue was fixed by treatment with 10% formalin for 24 hours. The fixed tissue was embedded with paraffin, and cut into a 5 µm thickness to obtain tissue sections. The tissue sections were deparaffinized, hydrated, and washed, and then subjected to hematoxylin & eosin stain or Masson's trichrome stain.
Masson's trichrome stain is used to investigate collagen in the tissue, and collagenosis means that the wound in the dermis healed and the functions of the tissue were restored.

HDF cells = experiment: Cytoprotective activity against glucose oxidative stress in high-glucose environment (MTT); assay type: cell-based, human; conditions: 50 mM D-glucose, 10 µM and 20 µM, 7 mU/mℓ glucose oxidase, 24 hours, FIG. 8A
Description: (§1) In order to investigate the activity of the uldavioside A compound of the present invention, animal cells were incubated. Here, C212 cells, as myoblasts, and NIH3T3 cells and human diploid fibroblasts (HDFs), as fibroblasts, were used as the animal cells. Each type of cells were incubated in a 5% CO2 incubator containing Dulbecco's modified eagle's medium (DMEM) supplemented with 10% fetal bovine serum (FBS), 100 U/mℓ penicillin, and 100 µg/mℓ streptomycin at 37 °C.
(§2) The cytoprotective activity of the uldavioside A compound of the present invention against glucose oxidative stress was investigated.
(§3) The C2C12 cells and HDF cells incubated in Experimental Example 1 were dispensed at 1×10^5 per well in a 48-well plate, respectively, and then incubated for 24 hours. Thereafter, each well was treated with 50 mM D-glucose to create a high-glucose environment. Then, the cells were treated with the uldavioside A compound at 10 µM and 20 µM, and after 1 hour, were treated with 7 mU/mℓ glucose oxidase, followed by incubation for 24 hours. Here, non-treated C2C12 or HDF cells were used as control 1, high-glucose state cells were used as control 2, and high-glucose state cells treated with glucose oxidase were used as control 3. […] Thereafter, the culture liquid was removed and the formed formazan precipitate was dissolved in 200 µℓ of DMSO, and then the absorbance was measured at 570 nm.

bFGF = experiment: Immunohistochemistry of hack wound tissue sections; assay type: in vivo, Sprague-Dawley white rats; conditions: IHC, tissue sections on day 10, compared with the control, FIG. 7B
Text: (§4) In order to investigate a hack healing effect of the uldavioside A compound of the present invention, the expression changes of proteins associated with angiogenesis and tissue regeneration were observed.
(§5) The tissue sections on day 10, which were fabricated in Experimental Example 4-2 above, were deparaffinized, hydrated, and washed, and were then subjected to immunohistochemistry (IHC) using antibodies of vascular endothelial growth factor (VEGF) and CD31, which are proteins associated with angiogenesis in tissue, and basic fibroblast growth factor (bFGF) and β-catenin, which are proteins associated with tissue regeneration.

VEGF = experiment: Immunohistochemistry of hack wound tissue sections; assay type: in vivo, Sprague-Dawley white rats; conditions: IHC, tissue sections on day 10, compared with the control, FIG. 7A
Text: as §4, §5

β-catenin = experiment: Immunohistochemistry of hack wound tissue sections; assay type: in vivo, Sprague-Dawley white rats; conditions: IHC, tissue sections on day 10, compared with the control, FIG. 7B
Text: as §4, §5

CD31 = experiment: Immunohistochemistry of hack wound tissue sections; assay type: in vivo, Sprague-Dawley white rats; conditions: IHC, tissue sections on day 10, compared with the control, FIG. 7A
Text: as §4, §5

C2C12 cells [3] = experiment: MTT assay, cytotoxicity; assay type: cell-based; conditions: 1 µM and 10 µM, 24 hours
Description: as §1
(§6) The cytotoxicity of the uldavioside A compound of the present invention was investigated using a 3-(4,5-dimethylthiazol-2-yl)-2,5-diphenyltetrazolium bromide (MTT) assay.
(§7) The C2C12 and NIH3T3 cells incubated in Experimental Example 1 above were dispensed at 1×10^5 cells per well in a 48-well plate and then incubated for 24 hours. Thereafter, DMEM medium containing 0.5% FBS, 100 U/mℓ penicillin, and 100 µg/mℓ streptomycin was placed therein, and then the cells were incubated for 18 hours. After the 18-hour incubation, the cells were treated with an uldavioside A compound at 1 µM and 10 µM and then incubated for 24 hours. Here, non-treated C2C12 and NIH3T3 cells were used as controls. After 24 hours, the cells were treated with an MTT solution at 100 µg/mℓ and incubated at 37 °C for 3 hours. Thereafter, the culture liquid was removed and the formed formazan precipitate was dissolved in 200 µℓ of dimethyl sulfoxide (DMSO), and then the absorbance was measured at 570 nm.

NIH3T3 cells [4] = experiment: MTT assay, cytotoxicity; assay type: cell-based; conditions: 1 µM and 10 µM, 24 hours
Description: as §1, §6, §7

C2C12 cells [5] = experiment: Wound healing (scratch) assay under glucose oxidative stress (glucose oxidase); assay type: cell-based; conditions: 10 µM, 7 mU/mℓ glucose oxidase, compared with the controls, FIG. 4A, 4B
Description: as §1
(§8) The C2C12 and NIH3T3 cells incubated in Experimental Example 1 above were dispensed at 1×10^6 cells per well in a 12-well plate, and then stabilized through incubation for 24 hours. Thereafter, DMEM medium containing 0.5% FBS, 100 U/mℓ penicillin, and 100 µg/mℓ streptomycin was placed therein, and then the cells were incubated for 18 hours. After the 18-hour incubation, a scratch with about 0.9 mm was made in the center of each well with growing cells, and the cells were treated with a 10 µM uldavioside A compound, followed by pre-incubation for 1 hour. […] Here, at 0, 12, and 24 hours, the cells were fixed with a fixative (2% formaldehyde and 0.2% glutaraldehyde) and stained with 0.3% crystal violet, and then, the migration of the cells was checked using a microscope, and the reduction in area due to the migration of the cells into a wounded site. […]

NIH3T3 cells [6] = experiment: as above; assay type: cell-based; conditions: 10 µM, 7 mU/mℓ glucose oxidase, compared with the controls, FIG. 4, migration activity higher than in C2C12
Description: as §1, §8

C2C12 cells [7] = experiment: Cytoprotective activity against glucose oxidative stress in high-glucose environment (MTT); assay type: cell-based; conditions: 50 mM D-glucose, 10 µM and 20 µM, 7 mU/mℓ glucose oxidase, 24 hours, FIG. 8B
Description: as §1, §2, §3

C2C12 cells [8] = experiment: Wound healing (scratch) assay under inflammatory stress (LPS); assay type: cell-based; conditions: 10 µM, 1 hour pre-incubation, then 10 µg/mℓ LPS, 0, 12, 24 hours, compared with the controls (LPS only), FIG. 3A, 3B
Description: as §1
(§9) In order to investigate a wound healing effect according to the treatment with the uldavioside A compound of the present invention, a wound healing assay was conducted.
(§10) The C2C12 and NIH3T3 cells incubated in Experimental Example 1 above were dispensed at 1×10^6 cells per well in a 12-well plate, and then stabilized through incubation for 24 hours. Thereafter, DMEM medium containing 0.5% FBS, 100 U/mℓ penicillin, and 100 µg/mℓ streptomycin was placed therein, and then the cells were incubated for 18 hours. After the 18-hour incubation, a scratch with about 0.9 mm was made in the center of each well with growing cells, and the cells were treated with a 10 µM uldavioside A compound, followed by pre-incubation for 1 hour. After 1 hour, the cells were treated with 10 µg/mℓ lipopolysaccharide (LPS) for inflammatory stress stimulation, and then migration of the cells was observed while the cells were incubated. […]

NIH3T3 cells [9] = experiment: as above; assay type: cell-based; conditions: 10 µM, 1 hour pre-incubation, then 10 µg/mℓ LPS, 0, 12, 24 hours, compared with the controls (LPS only), FIG. 3C, 3D, migration activity higher than in C2C12
Description: as §1, §9, §10

[10] = tested on: diabetes-induced animal models; experiment: Diabetic ulcer healing, circular cut in streptozotocin-induced diabetic rats; assay type: in vivo, Sprague-Dawley white rats; conditions: dorsal circular cut 1 or 1.5 cm, ointment containing 0.025 wt%, topical, 8 days at intervals of 2 days, compared with the control, FIG. 9
Description: In order to investigate a diabetic ulcer healing effect of the uldavioside A compound of the present invention, an animal experiment was conducted.
7-week-old Sprague-Dawley white rats with a body weight of about 300 g were intraperitoneally injected with 60 mg/kg streptozotocin to induce diabetes. After three days, only white rates with a blood glucose level of 300 mg/dℓ or higher were selected by collecting venous blood from the tail vein and measuring the glucose level using a blood glucose meter. The dorsal part of each of the selected white rats was shaved, and a circular cut with a diameter of 1 or 1.5 cm was made on the dorsal part 4-5 cm away from the ear using a puncher. After the circular cut was made, the white rats were randomly assigned and divided into a control treated without the uldavioside A compound of the present invention and a treatment group. For the treatment group, on the day of circular cut induction, the cut was treated with an ointment containing 0.025 wt% of the uldavioside A compound (Preparation Example 1-2 below), wrapped with sterilized Korean traditional paper, and fixed with a band and a bandage to maintain a wet environment. For the control, the cut was treated with an ointment not containing the uldavioside A compound.

OCC1(O)COC(Oc2cc(O)cc3c2CC(O)C(c2ccc(O)c(O)c2)O3)C1O (stereo not drawn) [uldavioside A compound, uldavioside A]
wound site (size of the wound site) [1]: started healing from day 7, and almost healed on day 14 | inflow of immune cells ([2]; H&E stain, day 3 after hack induction, ointment 0.025 wt%, FIG. 6(A)): reduced | angiogenesis and granulation tissues formation ([2]; H&E stain, day 7 after hack induction, ointment 0.025 wt%, FIG. 6(A)): actively progressing | proliferation of fibroblasts ([2]; H&E stain, day 10 after hack induction, ointment 0.025 wt%, FIG. 6(A)): active proliferation of fibroblasts were observed | amount of collagen stained ([2]; Masson's trichrome stain, day 7 after hack induction, compared with the control, FIG. 6(B)): remarkably increased | collagenosis ([2]; Masson's trichrome stain, day 17, FIG. 6(B)): collagenosis in most tissues | reduction in cell viability by glucose oxidative stress (HDF cells): inhibited in a dose-dependent manner | expression level of bFGF (bFGF): significantly increased | expression level of VEGF (VEGF): significantly increased | expression level of β-catenin (β-catenin): significantly increased | expression level of CD31 (CD31): significantly increased | cytotoxicity (C2C12 cells [3]; MTT): no cytotoxicity | cell viability (C2C12 cells [3]; compared with the controls (non-treated cells), FIG. 2A): increased | cytotoxicity (NIH3T3 cells [4]; MTT): no cytotoxicity | cell viability (NIH3T3 cells [4]; compared with the controls (non-treated cells), FIG. 2B): increased | cell migration (C2C12 cells [5]): increased | cell migration (NIH3T3 cells [6]): increased | reduction in cell viability by glucose oxidative stress (C2C12 cells [7]): inhibited in a dose-dependent manner | cell migration (C2C12 cells [8]): increased | cell migration (NIH3T3 cells [9]): increased | wound site (wound size) [10]: started healing from day 4 and the wound size remarkably decreased
